Test results: EP3552605A1 (priority 2018, dated 2019)
“Also recorded” adds a separate entry of the source. Like-named read-outs stand apart in the source and are kept apart here.

Columns and labels:
[1] = system: senescent ARPE-1 cells; test: toxicity towards senescent ARPE-1 cells (GIEMSA staining, microscopy); format: cell-based, human; settings: 10 µM, 48 hours; senescence induced by 200nM aphidicolin for three weeks; Figure 1
Procedure: (§1) hTERT RPE-1 human retinal epithelial cell line was obtained from ATTC. Cells were grown in DMEM medium (Sigma Aldrich) supplemented with 10% fetal bovine serum (FBS) and antibiotics (penicillin-streptomycin). MRC-5 human lung fibroblast cell line was obtained from ATTC. Cells were grown in DMEM (Sigma Aldrich) supplemented with 10% FBS and antibiotics (penicillin-streptomycin).
(§2) In human ARPE-1 human epithelial cells, senescence response - manifested by loss of proliferation, typical morphological changes and Senescence Associated Beta-galactosidase positivity - was induced by exposition to replication stress for prolonged time period. The induction involved 200nM aphidicolin continual treatment for three weeks. The senescent cells have been exposed to various doses of MCOPPB dissolved in water for 48 hours, the dose range spanned 100 nM - 50 µM. The number of surviving cells was evaluated immediately after the treatment either using GIMSA staining and microscopy-based evaluation of surviving cells and compared to parental exponentially growing ARPE-1 cells, which were exposed to MCOPPB as well. Control samples of senescent and parental cells, without MCOPPB treatment, were assessed, too. […]

[2] = system: parental (normal healthy) ARPE-1 cells; test: toxicity towards parental ARPE-1 cells (GIEMSA staining, microscopy); format: cell-based, human; settings: 10 µM, 48 hours; Figure 1
Procedure: as §1, §2

[3] = system: senescent MRC5 cells; test: toxicity towards senescent MRC5 cells (GIEMSA staining, microscopy); format: cell-based, human
Procedure: as §1
In human MRC-5 fibroblasts cells, senescence response - manifested by loss of proliferation, typical morphological changes and Senescence Associated Beta-galactosidase positivity - was induced by exposition to gamma radiation. The induction involved a single irradiation, total dose 15 Gy using Xstrahl RS 225 M RTG device set to 200KV 15mA (dose 3.8Gy/min). […] The number of surviving cells was evaluated immediately after the treatment either using GIMSA staining and microscopy-based evaluation of surviving cells and compared to parental exponentially growing MRC-5 cells.

[4] = tolerance of long term application in vivo; design: species or system mice (C57B1/6 strain); settings: five weeks, regime 5 + 2, female mice aged 42 weeks
Procedure: Female mice (C57B1/6 strain) at the age of 42 weeks were treated by intraperitoneal application of MCOPPB (10 mg/kg and 20 mg/kg) dissolved in phosphate buffer or by the buffer alone (vehicle) for five weeks in the regime 5 + 2 (5 days with the treatment, two days without) and followed for another two weeks. The weight and another physiological factors reflecting overall fitness were monitored.

[5] = system: senescent cells (p16 positive cells); test: elimination of senescent cells in p16 luciferase reporter mouse; format: in vivo
Procedure: Reporter GMO mouse with integrated luciferase reporter under p16 promoter allows monitoring of aging on the molecular level by an increase of luminescence signal due to the accumulation of senescent cells (this mouse model is described in details in: Cell. 2013 Jan 17;152(1-2):340-51). Application of senolytics targets the p16 positive cells and leads to decrease in the luminescent signal. Naturally aged reporter mice were treated by the MCOPPB compound and luminescence signal level was measured over time.

[6] = target: mu opioid receptor (Homo sapiens, UniProt P35372); settings: cited from earlier work
[7] = target: kappa opioid receptor (Homo sapiens, UniProt P41145); settings: cited from earlier work
[8] = target: delta opioid receptor (Homo sapiens, UniProt P41143); settings: cited from earlier work
[9] = target: T1, NOP receptor in the mouse brain (Mus musculus, UniProt P35377); settings: 10 mg/kg, p.o.; ex vivo; cited from earlier work
T1 construct: from tissue; host or cells: mouse brain

[10] = p.o., cited from earlier work
[11] = animal studies, cited from earlier work
[12] = oral dose of 10 mg/kg; cited from earlier work
[13] = cited from earlier work
[14] = dose not stated; cited from earlier work

T1 sequence (P35377 whole entry): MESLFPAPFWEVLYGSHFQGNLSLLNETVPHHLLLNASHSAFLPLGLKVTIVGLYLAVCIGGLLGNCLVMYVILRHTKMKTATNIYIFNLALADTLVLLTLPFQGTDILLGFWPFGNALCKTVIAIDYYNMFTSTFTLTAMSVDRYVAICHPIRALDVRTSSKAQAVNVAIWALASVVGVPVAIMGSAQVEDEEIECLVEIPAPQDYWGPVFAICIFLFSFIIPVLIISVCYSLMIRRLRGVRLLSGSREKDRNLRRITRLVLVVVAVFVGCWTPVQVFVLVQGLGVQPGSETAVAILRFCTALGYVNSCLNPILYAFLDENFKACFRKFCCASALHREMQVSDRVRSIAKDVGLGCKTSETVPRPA
Chain of delta opioid receptor (P41143 whole entry): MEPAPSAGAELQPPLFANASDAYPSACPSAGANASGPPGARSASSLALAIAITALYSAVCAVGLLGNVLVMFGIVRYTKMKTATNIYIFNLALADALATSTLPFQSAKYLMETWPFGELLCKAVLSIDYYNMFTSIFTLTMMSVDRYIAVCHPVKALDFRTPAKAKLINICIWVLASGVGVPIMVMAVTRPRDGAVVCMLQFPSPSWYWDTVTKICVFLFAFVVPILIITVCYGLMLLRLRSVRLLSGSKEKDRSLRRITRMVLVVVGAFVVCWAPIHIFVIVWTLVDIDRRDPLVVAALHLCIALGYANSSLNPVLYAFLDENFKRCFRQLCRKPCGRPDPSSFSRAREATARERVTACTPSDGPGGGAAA
Chain of mu opioid receptor (P35372 whole entry, species assumed): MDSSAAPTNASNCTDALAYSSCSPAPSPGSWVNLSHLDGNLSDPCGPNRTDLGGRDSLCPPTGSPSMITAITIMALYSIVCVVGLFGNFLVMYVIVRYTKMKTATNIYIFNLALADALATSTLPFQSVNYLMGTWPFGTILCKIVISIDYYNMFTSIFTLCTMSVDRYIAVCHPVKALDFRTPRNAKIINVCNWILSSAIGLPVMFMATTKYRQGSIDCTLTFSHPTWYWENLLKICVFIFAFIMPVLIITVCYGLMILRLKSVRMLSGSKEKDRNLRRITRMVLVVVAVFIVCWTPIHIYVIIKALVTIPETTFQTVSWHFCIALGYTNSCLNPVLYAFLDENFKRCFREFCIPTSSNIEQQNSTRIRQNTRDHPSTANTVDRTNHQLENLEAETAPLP
Chain of kappa opioid receptor (P41145 whole entry): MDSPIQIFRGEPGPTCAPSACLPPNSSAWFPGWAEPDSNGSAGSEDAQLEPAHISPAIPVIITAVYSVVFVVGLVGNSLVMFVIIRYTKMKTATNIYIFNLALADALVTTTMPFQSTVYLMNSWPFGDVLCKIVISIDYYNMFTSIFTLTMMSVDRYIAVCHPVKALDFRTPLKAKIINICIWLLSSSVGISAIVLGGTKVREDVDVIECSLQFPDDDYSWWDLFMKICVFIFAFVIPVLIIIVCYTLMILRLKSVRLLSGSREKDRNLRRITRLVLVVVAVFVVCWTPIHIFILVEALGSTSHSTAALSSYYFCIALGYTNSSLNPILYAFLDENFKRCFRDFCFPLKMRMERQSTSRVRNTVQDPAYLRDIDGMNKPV

Structure (SMILES): CC1(N2CCC(n3c([C@@H]4CCCNC4)nc4ccccc43)CC2)CCCCCCC1 [MCOPPB, 1-[1-(1-methylcyclooctyl)-4-piperidinyl]-2-[(3R)-3-piperidinyl]-1H-benzimidazole]
- toxicity towards the senescent cells [1]: cell deterioration and cell loss; also recorded: selective toxicity
- adverse effects on the parental cells [2]: no adverse effects
- toxicity towards the senescent cells ([3]; 5 µM, 48 hours, senescence induced by gamma radiation 15 Gy, Figure 3): selective toxicity
- toxicity towards the senescent cells ([3]; 10µM for 48 hours (legend of Figure 3)): cell deterioration and cell loss
- tolerance by the animals ([4]; 10 mg/kg intraperitoneal): well tolerated
- tolerance by the animals ([4]; 20 mg/kg intraperitoneal): well tolerated
- whole body luminescent signals ([5]; 12-16 months old p16 reporter mice, treated for two weeks, versus vehicle, Figure 6): decrease of the luminescence signal
- whole body luminescent signal ([5]; 12 month old p16 reporter mouse, after three weeks of treatment, Figure 5): rapid decrease of the signal
- luminescence signal ([5]; naturally aged reporter mice, compared to controls, figures 5 and 6): decrease in the luminescence signal
- affinity for the mu opioid receptor [6]: moderate affinity
- affinity for the kappa opioid receptor [7]: weak affinity
- binding at the delta opioid receptor [8]: negligible binding
- signaling through the NOP receptor in the mouse brain [9]: inhibited signaling
- anxiolytic-like effects ([10]; 10 mg/kg): elicited anxiolytic-like effects
- anxiolytic effect after repeated administration ([10]; 10 mg/kg, repeated administration for 5 days): still effective as an anxiolytic agent
- shape of response curve [10]: bell-shaped response curve
- sedative side effects ([11]; appear only at much higher doses than the effective anxiolytic dose range): only slight sedative side effects
- anxiolytic effects [11]: potent anxiolytic effects
- inhibition of memory or motor function [11]: no inhibition of memory or motor function
- locomotor activity [12]: did not affect
- memory ([13]; oral dose of 10 mg/kg): did not affect

Structure (SMILES): CN1C(=O)CN=C(c2ccccc2)c2cc(Cl)ccc21 [diazepam, reference compound]
- anxiolytic-like effects ([10]; 3 mg/kg): elicited anxiolytic-like effects
- memory ([13]; dose not stated): caused memory deficits
- ethanol-induced hypnosis [14]: enhanced ethanol-induced hypnosis
